# Measured values: patent US20040248764A1 (priority 2001, published 2004)
# Where “and” joins values, the source holds several entries; their conditions need not be identical. Equal values may be shown once. Read-outs that look alike come from different tables or passages of the source.
# Tests used:
# [1] = system: X. fastidiosa-infected grapevines; conditions: in vivo
# Mycoplasma iowae = type: cell-based
# grape = conditions: in vivo
# S. floricola = type: cell-based
# Xylella fastidiosa = type: in vivo, grapevines
# S. melliferum = type: cell-based
# healthy vines = conditions: in vivo
# Xylella = type: cell-based
# [2] = system: Xylella fastidiosa strains; assay: microbe, parasite or virus in culture; type: cell-based; conditions: for MIC: Xylella fastidiosa
# Spiroplasma citri = type: cell-based
# [3] = system: X. fastidiosa-infected grapevines; conditions: in vivo; remark: listed apart in the source
# [4] = system: Xylella sp. strains Shiraz, Melody, Coyaga; type: cell-based; conditions: 10^8 CFU
# S. apis = type: cell-based
# E. coli = conditions: cited from earlier work
# [5] = system: aster yellow phytoplasma (AYP); type: in vivo, Catharanthus roseus
structure (smiles),measurement,setting,value
"CC(C)=CCCC(C)=CC=O [citral, 3,7-dimethyl-2,6-octadien-1-al]",average branch length longer than control vines,[1],~6 inches
same,color changing units,Mycoplasma iowae,10^8 CCUs and 10^7 CCUs and 10^6 CCUs and 10^5 CCUs and 10^4 CCUs
same,kill of cells by the treatment,Mycoplasma iowae,not enough to kill
same,concentration at which phytotoxic,grape; grape,approximately 5000 ppm
same,phytotoxicity in grape,grape,phytotoxicity
same,color changing units,S. floricola,10^9 CCUs and 10^6 CCUs
same,treated vines positive for bacteria (isolation and ELISA),"Xylella fastidiosa; other vines, treated Day 206 and Day 213, sampled on Day 252",Four out of 15
same,treated vines positive for presence of bacteria (isolation and ELISA),"Xylella fastidiosa; treated Day 0 and Day 7, sampled on Day 252",Three out of 15
same,cells that survived the treatment,S. melliferum,no cells
same,weekly observations of treated healthy vines,healthy vines,no phytoplasma on any plants
same,effect on Xylella,Xylella; 62.5 ppm citral,No complete kill but get stasis
same,kill of Xylella,Xylella; 125 ppm citral,100% kill
same,kill of Xylella,Xylella; 500 ppm citral,100% kill
same,effect on cells of X. fastidiosa strains,"[2]; 250 ppm, 24-hr. treatment",killed cells of all 11 strains
same,MIC,"[2]; 4 grape strains, 2 sycamore strains, and 1 peach strain",125 µg/mL
same,MIC,"[2]; 24 h, strain 2#6, Plum leaf scald",62.5 µg/mL
same,MIC,"[2]; 24 h, strain 3SV, Pierce's disease of grapevine",125 µg/mL
same,MIC,"[2]; 24 h, strain 4#5, Phony disease of peach",125 µg/mL
same,MIC,"[2]; 24 h, strain 4BD2, Pecan leaf scorch",62.5 µg/mL
same,MIC,"[2]; 24 h, strain #6, Oleander leaf scorch",62.5 µg/mL
same,MIC,"[2]; 24 h, strain Cayuga, Pierce's disease of grapevine",125 µg/mL
same,MIC,"[2]; 24 h, strain Melody, Pierce's disease of grapevine",125 µg/mL
same,MIC,"[2]; 24 h, strain SLS#61, Sycamore leaf scorch",125 µg/mL
same,MIC,"[2]; 24 h, strain SLS-DC, Sycamore leaf scorch",125 µg/mL
same,MIC,"[2]; 24 h, strain Shiraz, Pierce's disease of grapevine",125 µg/mL
same,MIC,"[2]; 24 h, strain Yugo, Pierce's disease of grapevine",62.5 µg/mL
same,MIC,"[2]; strains from grape, plum, pecan, and oleander",62.5 µg/mL
same,cells that survived the treatment,Spiroplasma citri,no cells
same,average fruit yield,[3],about 4.8 lbs of fruit per vine
same,average increased yield,[3],about 6.25%
same,Xylella growth (CFU),"[4]; strain Coyaga, 3.25 ppm",TNTC
same,Xylella growth (CFU),"[4]; strain Coyaga, 62.5 ppm",TNTC
same,Xylella growth (CFU),"[4]; strain Melody, 3.25 ppm",TNTC
same,Xylella growth (CFU),"[4]; strain Melody, 62.5 ppm",TNTC
same,Xylella growth (CFU),"[4]; strain Shiraz, 3.25 ppm",TNTC
same,Xylella growth (CFU),"[4]; strain Shiraz, 62.5 ppm",TNTC**
same,color changing units,S. apis,10^9 CCUs and 10^7 CCUs and 10^3 CCUs
same,citral in growth media that reduced the concentration of E. coli,E. coli,more than 0.01%
same,citral in growth media with bactericidal effect,E. coli,0.08%
same,AYP symptoms of treated plants,"[5]; 500 ppm citral in water, 500 mL per plant Day 8 and Day 14, three plants, as of Day 108",remained symptomless
same,AYP symptoms of treated periwinkles,"[5]; 500 ppm, 500 mL per plant Day 8 and Day 15, three plants, as of Day 174",remained symptomless
same,delay of symptom development,[5]; in vivo,22 days
